Paper PMC9181938, “Fluorinated Analogues of Lepidilines A and C: Synthesis and Screening of Their Anticancer and Antiviral Activity” (Molecules, 2022)
Read-outs that look alike come from different tables or passages of the source.

Assays:
[1] = Cytotoxicity screening at 10 µM (MTT); type: cell-based, Human; conditions: human, HeLa cells, read-out: Cell line (viability %) HeLa
[2] = system: Human adenovirus 5 (AdV5); assay: Antiviral screening at 10 µM; type: cell-based; conditions: Human mastadenovirus C, AdV5-infected cells, read-out: Cell line (viability %) AdV5
Description: (§1) Antiviral properties of compounds 1a, 1c, 1a[PF6], 1c[PF6], 9b[PF6], 9c[PF6], 10a–10d, 2a, and 2b were assessed against five viruses: Human herpesvirus 1 (HSV-1, VR-539), Human parainfluenza virus type 3 (HPIV-3, VR-93), Human adenovirus 5 (AdV5, VR-5), Human herpesvirus 5 (HCMV, VR-977), and Encephalomyocarditis virus (EMCV, VR-1479). Viruses were purchased from the American Type Culture Collection (ATCC, Manassas, VA, USA).
(§2) All tested compounds were dissolved in DMSO (dimethyl sulfoxide, Sigma-Aldrich, Darmstadt, Germany) and then suspended in Minimum Essential Medium (MEM; Sigma-Aldrich, Darmstadt, Germany) supplemented with 2% heat-inactivated fetal bovine serum (FBS; Sigma-Aldrich, Darmstadt, Germany), 2 mM L-glutamine (Sigma-Aldrich, Darmstadt, Germany), and 100 units/mL penicillin G with […] streptomycin (Sigma-Aldrich, Darmstadt, Germany).
(§3) Vero, LLC-MK2, NCTC clone 929, MRC-5, and HeLa cells were propagated in Minimum Essential Medium (MEM; Sigma-Aldrich, Darmstadt, Germany) supplemented with 10% heat-inactivated fetal bovine serum (FBS; Sigma-Aldrich, Darmstadt, Germany) and 100 units/mL penicillin G with […] streptomycin (Sigma-Aldrich, Darmstadt, Germany). Upon reaching 80–90% confluency, cells were harvested with 0.25% trypsin in 1 mM EDTA (Life Technologies, Warsaw, Poland) and seeded onto 96-well microplates at 2 × 10^5 cells/mL. After overnight incubation of cells at 37 °C in a humidified atmosphere containing 5% CO2, the culture medium was removed, and cells were inoculated with the respective virus solution in MEM supplemented with 2% FBS and antibiotics (HSV-1 MOI 0.005, 1000 virions/mL; HPIV-3 MOI 0.01, 2000 virions/mL; AdV5 MOI 0.005, 1000 virions/mL, EMCV MOI 0.005, 1000 virions/mL, HCMV 20 PFU (plaque forming units) per well). After a 1-h (HSV-1, HPIV-3, AdV5, and EMCV) or 2-h adsorption period (HCMV), the residual virus was removed, and the infected cells were further incubated with a 100 μL freshly prepared solution of tested compounds diluted with a maintenance medium supplemented with 2% FBS to obtain compound concentrations of 10 µM. The final concentration of DMSO in the medium was 0.1%. All experiments were carried out in triplicate. The cells monolayers were incubated with the compounds at 37 °C in a humidified atmosphere containing 5% CO2 until the typical cytopathic effect (CPE) was visible. Viral infection was evaluated by the MTT assay or plaque reduction assay (HCMV). After incubation with drugs, the cells were treated with 3-(4,5-dimethylthiazol-2-yl)-2,5-diphenyltetrazolium bromide dye solution (MTT, Sigma-Aldrich, Darmstadt, Germany) (25 μL, 5 mg/mL) for 2 h and lysed with solvent solution (100 μL) containing: DMF (Sigma-Aldrich, Darmstadt, Germany) (45 mL), SDS (Sigma-Aldrich, Darmstadt, Germany) (13.5 g), and distilled water (55 mL). After overnight incubation at 37 °C, the optical density at 550 nm and a reference wavelength of 670 nm were measured on a microplate spectrophotometer, Varioskan Lux (Thermo Fisher Scientific, Waltham, MA, USA). The number of HCMV plaques was counted under an inverted microscope Olympus IX73 (Olympus, Tokyo, Japan).

[3] = system: Human herpesvirus 1 (HSV-1); assay: Antiviral screening at 10 µM; type: cell-based; conditions: Human alphaherpesvirus 1, antiviral screening, HSV-1-infected cells, read-out: Cell line (viability %) HSV-1
Description: as §1, §2, §3

[4] = system: Encephalomyocarditis virus (EMCV); assay: Antiviral screening at 10 µM; type: cell-based; conditions: Cardiovirus A, EMCV-infected cells, read-out: Cell line (viability %) EMCV
Description: as §1, §2, §3

[5] = system: Human parainfluenza virus type 3 (HPIV-3); assay: Antiviral screening at 10 µM; type: cell-based; conditions: Human respirovirus 3, antiviral screening, HPIV-3-infected cells, read-out: Cell line (viability %) HPIV-3
Description: as §1, §2, §3

[6] = system: Human herpesvirus 5 (HCMV); assay: Antiviral screening at 10 µM, plaque reduction; type: cell-based; conditions: Human betaherpesvirus 5, antiviral screening, HCMV-infected cells, read-out: Cell line (viability %) HCMV
Description: as §1, §2, §3

[7] = Cytotoxicity screening at 10 µM (MTT); type: cell-based, Human; conditions: human, MRC-5 cells, read-out: Cell line (viability %) MRC-5
[8] = Cytotoxicity screening at 10 µM (MTT); type: cell-based, Mus musculus; conditions: Mus musculus, NCTC clone 929 cells, read-out: Cell line (viability %) NCTC clone 929
[9] = Cytotoxicity screening at 10 µM (MTT); type: cell-based, Cercopithecus aethiops; conditions: Cercopithecus aethiops, Vero cells, read-out: Cell line (viability %) Vero
[10] = Cytotoxicity screening at 10 µM (MTT); type: cell-based, Macaca mulatta; conditions: Macaca mulatta, LLC-MK2 cells, read-out: Cell line (viability %) LLC-MK2
[11] = system: Human adenovirus 5 (AdV5); assay: Antiviral activity assay (0.1–1000 µM), IC50; type: cell-based; conditions: Human mastadenovirus C; Table S4, range 0.1-1000 µM, AdV5; read-out: IC50 (M) AdV5
Description: as §1, with “1e–1g, 1e[PF6], 8a–8d,” for “1a, 1c, 1a[PF6], 1c[PF6], 9b[PF6], 9c[PF6], 10a–10d, 2a,”, “9a” for “2b”
as §2
Investigated cells were propagated in Minimum Essential Medium (MEM; Sigma-Aldrich, Darmstadt, Germany) supplemented with 10% heat-inactivated fetal bovine serum (FBS; Sigma-Aldrich, Darmstadt, Germany) and 100 units/mL penicillin G with […] streptomycin (Sigma-Aldrich, Darmstadt, Germany). After reaching 80–90% confluency, cells were harvested with trypsin (Life Technologies, Warsaw, Poland) and seeded into 96-well microplates at 2 × 10^5 cells/mL after overnight incubation of cells at 37 °C in a humidified atmosphere containing 5% CO2.
The culture medium was removed from confluent cells grown in 96-well microplates, and the cells were inoculated with virus solutions in MEM supplemented with 2% FBS and antibiotics (HSV-1 MOI 0.005, 1000 virions/mL; HPIV-3 MOI 0.01, 2000 virions/mL; AdV5 MOI 0.005, 1000 virions/mL; EMCV 0.005, 1000 virions/mL; HCMV 20 PFU/well (plaque-forming units per well). After a 1-h (HSV-1, HPIV-3, AdV5, and EMCV) or 2-h adsorption period (HCMV), residual viral particles were removed, and infected cells were further incubated with MEM supplemented with 2% FBS containing compound concentrations in the range from 0.1 to 1000 µM [38]. All experiments were carried out in triplicate. The cell monolayers were incubated with the investigated compounds at 37 °C in a humidified atmosphere containing 5% CO2 until a cytopathic effect (CPE) was visible. Viral infection was evaluated by the MTT assay (as described previously) or plaque reduction assay. HCMV plaques were counted under an inverted microscope, Olympus IX73 (Olympus, Tokyo, Japan). Antiviral activity was expressed as the concentration required to reduce the number of viral plaques to 50% of the control (virus-infected but untreated).

[12] = Cytotoxicity MTT assay (0.1–1000 µM), CC50; type: cell-based, Human; conditions: human, HeLa cells

| SMILES | viability at 48 h, 10 µM [1] [%] | viability at 10 µM [2] [%] | viability at 10 µM [3] [%] | viability at 10 µM [4] [%] | viability at 10 µM [5] [%] | viability at 10 µM [6] [%] | viability at 48 h, 10 µM [7] [%] | viability at 48 h, 10 µM [8] [%] | viability at 48 h, 10 µM [9] [%] | viability at 48 h, 10 µM [10] [%] | IC50 [11] [M] | CC50 at 48 h ([12]; MTT, 48 h, read-out: CC50 Cancer Cell Lines HeLa) [µM] | CC50 at 48 h ([12]; Table S2, range 0.1-1000 µM, read-out: Cell line (CC50 M) HeLa) [µM] |
| --- | --- | --- | --- | --- | --- | --- | --- | --- | --- | --- | --- | --- | --- |
| COc1cccc(Cn2c[n+](Cc3ccccc3)c(-c3ccccc3)c2-c2ccccc2)c1 [9c[PF6]] | 7.1 | 14.4 | 13.3 | 9.4 | 12.8 | 1.9 | 12.6 | 6.5 | 6.6 | 7.6 |  |  |  |
| c1c[n+](C23CC4CC(CC(C4)C2)C3)cn1C12CC3CC(CC(C3)C1)C2 [Compound 2a, 1,3-diadamantyl imidazolium bromide, reference compound] | 23 | 50.2 | 13.9 | 7.1 | 8.3 | 9.7 | 73.7 | 8.9 | 7.9 | 7.8 |  |  |  |
| c1c[n+](OC23CC4CC(CC(C4)C2)C3)cn1OC12CC3CC(CC(C3)C1)C2 [Compound 2b] | 7.5 | 17.1 | 14.1 | 9.6 | 8.7 | 2.8 | 12.7 | 6.6 | 15.2 | 7.8 |  |  |  |
| COc1cccc(Cn2c(C)c(C)n(Cc3ccccc3)c2=S)c1 [Compound 10b] | 13.3 | 39.5 | 16.5 | 8.1 | 7.9 | 1.9 | 100 | 59 | 29.1 | 9.1 |  |  |  |
| S=c1n(Cc2ccccc2)c(-c2ccccc2)c(-c2ccccc2)n1Cc1ccccc1 [Compound 10c] | 7.8 | 16 | 14.7 | 8.5 | 10.9 | 7.1 | 73.8 | 35.5 | 11.4 | 15.8 |  |  |  |
| COc1cccc(Cn2c(-c3ccccc3)c(-c3ccccc3)n(Cc3ccccc3)c2=S)c1 [Compound 10d] | 74 | 68 | 14.6 | 8.5 | 10.6 | 1.9 | 96.8 | 91.5 | 95.8 | 53.6 | > 0.000318 | < 400 | 318 ± 47.5 |
